Results taken from patent publication US6759521B2, “Polarization switching to control crystal form” (priority 2000, dated 2004).

Details: glycine in water, room temperature (21 C)
Protocol: Supersaturated solutions of glycine in water, with concentrations ranging from 3.7 M to 3.9 M, were prepared by combining appropriate amounts of solid glycine with 2 g of water in 1.3-cm diameter Pyrex test tubes with screw-on caps. Great care was taken to exclude dust from samples. Supersaturation was achieved by heating the samples in an ultrasonic bath at 50 C, and holding them at that temperature until the glycine was completely dissolved.

csat, concentration of a saturated solution: 2.69 M
Compound: NCC(=O)O [glycine]
